Laboratory results taken from patent US20140221354A1, “IMIDAZO [1,2-a]PYRIDINE COMPOUNDS FOR USE IN THERAPY” (EMBLEM Technology Transfer GmbH, priority 2011, published 2014).

test system: CellSensor® HRE-bla HCT-116 stably transfected reporter cell line; test: HIF/HRE reporter assay; assay type: cell-based; details: Homo sapiens, inhibition of activated HIF signaling response, hypoxic conditions induced with deferoxamine (DFO), 24 h incubation, blue/green emission ratio, read-out: Evaluation
Description: Inhibition of an activated HIF signaling response under chemically-induced hypoxic conditions due to compound treatment was determined using the CellSensor® HRE-bla HCT-116 stably transfected reporter cell line from Invitrogen according to the manufacturer's instructions.
Cells were maintained as described previously and seeded into 384-well, clear-bottom plates (Corning 3712) at 15000 cells/well in 32 μl assay medium (Opti-MEM [Invitrogen], 0.5% FBS, 100 U/ml penicillin, 100 μg/ml streptomycin, 0.1 mM non-essential amino acids [NEAA], 1 mM sodium pyruvate, 5 mM HEPES [pH 7.3]). Following a 2 h incubation period, compounds (4 μl) were subsequently added to the cells at 10× concentrations in 5% DMSO and incubated under normal conditions for 30 min. To induce hypoxic conditions, 4 μl of a 2 mM deferoxamine (DFO) solution was added to the cells followed by 24 h incubation under standard assay conditions (as described). Control wells included wells containing only medium (no cells) and wells treated with 0.5% DMSO instead of compound.
Prior to the readout, the Substrate Loading Solution was prepared as described in the manufacturer's protocol and 10 μl added to each well. Following a further 2 h incubation period at room temperature and in the dark, fluorescence was measured at two wavelengths (blue channel: ex. 409 nm, em. 460 nm; green channel: ex. 409 nm, em. 530 nm) on a PerkinElmer Envision HTS. For the analysis, the average signal of the cell-free wells at 460 nm and 530 nm was first subtracted from the blue and green channel data, respectively. The blue/green emission ratios were then calculated for each well, dividing the background-corrected blue emission values by the background-corrected green emission values. […] values were determined from these ratios using GraphPad Prism (Prism 5, GraphPad software, Inc.).

Structure (SMILES) | EC50 [µM]
N#Cc1ccc(-c2nc3ccc(-c4ccccc4)cn3c2CN2CCCNCC2)cn1 [Example 16, 5-(3-((1,4-diazepan-1-yl)methyl)-6-phenylimidazo[1,2-a]pyridin-2-yl)picolinonitrile] | 0.5 to 1
c1ccc(-c2ccc3nc(-c4ccncc4)c(CN4CCCNCC4)n3c2)cc1 [Example 11, 3-((1,4-diazepan-1-yl)methyl)-6-phenyl-2-(pyridin-4-yl)imidazo[1,2-a]pyridine] | < 0.5
O=[N+]([O-])c1ccc(-c2nc3ccc(-c4ccccc4)cn3c2CN2CCCNCC2)cc1 [Example 4, 3-((1,4-diazepan-1-yl)methyl)-2-(4-nitrophenyl)-6-phenylimidazo[1,2-a]pyridine] | < 0.5
O=C1CN(Cc2c(-c3ccc(Cl)cc3)nc3ccc(-c4ccccc4)cn23)CCN1 [Example 32, 4-((2-(4-chlorophenyl)-6-phenylimidazo[1,2-a]pyridin-3-yl)methyl)piperazin-2-one] | > 1
N#Cc1ccc(-c2nc3ccc(-c4cnco4)cn3c2CN2CCCNCC2)cc1 [Example 39, 4-(3-((1,4-diazepan-1-yl)methyl)-6-(oxazol-5-yl)imidazo[1,2-a]pyridin-2-yl)benzonitrile] | > 1
CN1CCCN(Cc2c(-c3ccc(C#N)s3)nc3ccc(-c4ccccc4)cn23)CC1 [Example 36, 5-(3-((4-methyl-1,4-diazepan-1-yl)methyl)-6-phenylimidazo[1,2-a]pyridin-2-yl)thiophene-2-carbonitrile] | < 0.5
COc1ccc(-c2nc3ccc(-c4ccccc4)cn3c2CN2CCCNCC2)cc1 [Example 18, 3-((1,4-diazepan-1-yl)methyl)-2-(4-methoxyphenyl)-6-phenylimidazo[1,2-a]pyridine] | < 0.5
N#Cc1ccc(-c2nc3ccc(-c4ccc(C(N)=O)cc4)cn3c2CN2CCCNCC2)cc1 [Example 42, 4-(3-((1,4-diazepan-1-yl)methyl)-2-(4-cyanophenyl)imidazo[1,2-a]pyridin-6-yl)benzamide] | > 1
N#Cc1csc(-c2nc3ccc(-c4ccccc4)cn3c2CN2CCCNCC2)c1 [Example 20, 5-(3-((1,4-diazepan-1-yl)methyl)-6-phenylimidazo[1,2-a]pyridin-2-yl)thiophene-3-carbonitrile] | < 0.5
c1ccc(-c2ccc3nc(-c4ccccc4)c(CN4CCCNCC4)n3c2)cc1 [Example 19, 3-((1,4-diazepan-1-yl)methyl)-2,6-diphenylimidazo[1,2-a]pyridine] | 0.5 to 1
Cc1cccc(-c2ccc3nc(-c4ccc(C#N)cc4)c(CN4CCCNCC4)n3c2)c1 [Example 24, 4-(3-((1,4-diazepan-1-yl)methyl)-6-(m-tolyl)imidazo[1,2-a]pyridin-2-yl)benzonitrile] | < 0.5
N#Cc1ccc(-c2nc3ccc(-c4ccccc4)cn3c2CN2CCCNCC2)cc1 [Example 9, 4-(3-((1,4-diazepan-1-yl)methyl)-6-phenylimidazo[1,2-a]pyridin-2-yl)benzonitrile] | < 0.5
Cn1cccc1-c1ccc2nc(-c3ccc(C#N)cc3)c(CN3CCCNCC3)n2c1 [Example 38, 4-(3-((1,4-diazepan-1-yl)methyl)-6-(1-methyl-1H-pyrrol-2-yl)imidazo[1,2-a]pyridin-2-yl)benzonitrile] | 0.5 to 1
CN1CCCN(Cc2c(-c3ccc(Cl)cc3)nc3ccc(-c4ccccc4)cn23)CC1 [Example 31, 2-(4-chlorophenyl)-3-((4-methyl-1,4-diazepan-1-yl)methyl)-6-phenylimidazo[1,2-a]pyridine] | < 0.5
Cc1cc(-c2ccc3nc(-c4ccc(C#N)cc4)c(CN4CCCNCC4)n3c2)ccn1 [Example 28, 4-(3-((1,4-diazepan-1-yl)methyl)-6-(2-methylpyridin-4-yl)imidazo[1,2-a]pyridin-2-yl)benzonitrile] | 0.5 to 1
CC(=O)N1CCN(Cc2c(-c3ccc([N+](=O)[O-])cc3)nc3ccc(-c4ccccc4)cn23)CC1 [Example 3, 1-(4-((2-(4-nitrophenyl)-6-phenylimidazo[1,2-a]pyridin-3-yl)methyl)piperazin-1-yl)ethanone] | 0.5 to 1
Cc1ccccc1-c1ccc2nc(-c3ccc(C#N)cc3)c(CN3CCCNCC3)n2c1 [Example 25, 4-(3-((1,4-diazepan-1-yl)methyl)-6-(o-tolyl)imidazo[1,2-a]pyridin-2-yl)benzonitrile] | < 0.5
N#Cc1ccc(-c2nc3ccc(-c4ccccc4)cn3c2CN2CCNC(=O)C2)cc1 [Example 33, 4-(3-((3-oxopiperazin-1-yl)methyl)-6-phenylimidazo[1,2-a]pyridin-2-yl)benzonitrile] | > 1
CN1CCCN(Cc2c(-c3ccc([N+](=O)[O-])cc3)nc3ccc(-c4ccccc4)cn23)CC1 [Example 12, 3-((4-methyl-1,4-diazepan-1-yl)methyl)-2-(4-nitrophenyl)-6-phenylimidazo[1,2-a]pyridine] | < 0.5
Clc1ccc(-c2nc3ccc(-c4ccccc4)cn3c2CN2CCCNCC2)cc1 [Example 14, 3-((1,4-diazepan-1-yl)methyl)-2-(4-chlorophenyl)-6-phenylimidazo[1,2-a]pyridine] | < 0.5
NC(=O)c1ccc(-c2nc3ccc(-c4ccccc4)cn3c2CN2CCCNCC2)cc1 [Example 10, 4-(3-((1,4-diazepan-1-yl)methyl)-6-phenylimidazo[1,2-a]pyridin-2-yl)benzamide] | > 1
Cc1ccc(-c2ccc3nc(-c4ccc(C#N)cc4)c(CN4CCCNCC4)n3c2)cc1 [Example 23, 4-(3-((1,4-diazepan-1-yl)methyl)-6-(p-tolyl)imidazo[1,2-a]pyridin-2-yl)benzonitrile] | < 0.5
CS(=O)(=O)c1ccc(-c2nc3ccc(-c4ccccc4)cn3c2CN2CCCNCC2)cc1 [Example 8, 3-((1,4-diazepan-1-yl)methyl)-2-(4-(methylsulfonyl)phenyl)-6-phenylimidazo[1,2-a]pyridine] | > 1
N#Cc1cccc(-c2nc3ccc(-c4ccccc4)cn3c2CN2CCCNCC2)c1 [Example 22, 3-(3-((1,4-diazepan-1-yl)methyl)-6-phenylimidazo[1,2-a]pyridin-2-yl)benzonitrile] | < 0.5
N#Cc1ccc(-c2nc3ccc(-c4ccccc4)cn3c2CN2CCCNCC2)s1 [Example 21, 5-(3-((1,4-diazepan-1-yl)methyl)-6-phenylimidazo[1,2-a]pyridin-2-yl)thiophene-2-carbonitrile] | < 0.5
CCN1CCN(Cc2c(-c3ccc([N+](=O)[O-])cc3)nc3ccc(-c4ccccc4)cn23)CC1 [Example 6, 3-((4-ethylpiperazin-1-yl)methyl)-2-(4-nitrophenyl)-6-phenylimidazo[1,2-a]pyridine] | 0.5 to 1
O=C1CN(Cc2c(-c3ccc([N+](=O)[O-])cc3)nc3ccc(-c4ccccc4)cn23)CCN1 [Example 13, 4-((2-(4-nitrophenyl)-6-phenylimidazo[1,2-a]pyridin-3-yl)methyl)piperazin-2-one] | < 0.5
N#Cc1ccc(-c2nc3ccc(-c4ccc(Cl)cc4)cn3c2CN2CCCNCC2)cc1 [Example 40, 4-(3-((1,4-diazepan-1-yl)methyl)-6-(4-chlorophenyl)imidazo[1,2-a]pyridin-2-yl)benzonitrile] | < 0.5
CN1CCN(Cc2c(-c3ccc([N+](=O)[O-])cc3)nc3ccc(-c4ccccc4)cn23)CC1 [Example 7, 3-((4-methylpiperazin-1-yl)methyl)-2-(4-nitrophenyl)-6-phenylimidazo[1,2-a]pyridine] | < 0.5
